These are literature values, as cited in patent US20220118118A1, “BENZAZEPIN-L,7-DIOL-DERIVED RADIOLABELED LIGANDS WITH HIGH IN VIVO NMDA SPECIFICITY” (ETH ZURICH, priority 2018, published 2022).

For this series the following is noted: Garrigou-Cadenne et al. 1995.

As for `OC(CN1CCC(Cc2ccc(F)cc2)CC1)c1ccc(Cl)cc1` (stereo not shown) [eliprodil], the brain/plasma ratio result was “about 20”.
